In US20260152484A1, “HETEROCYCLIC COMPOUNDS AS TRIGGERING RECEPTOR EXPRESSED ON MYELOID CELLS 2 AGONISTS” (Vigil Neuroscience, Inc., priority 2021, published 2026):

Molecular target: T1, human TREM2 (Homo sapiens, UniProt Q9NZC2)
T1 construct: expressed in transfected cells; host or cells: HEK293T (HEK293T-hTREM2 cells)
Assay: Cellular phosphorylation of Syk (AlphaLisa) in HEK293T-hTREM2 cells, TREM2 agonist potency
Type: cell-based
Conditions: HEK293 cells expressing human TREM2 and DAP12; pSyk AlphaLisa; Table D
Description: In Vitro Measurement of Triggering Receptor Expressed on Myeloid Cells 2 Activity Using Cellular Phosphorylation of Spleen Tyrosine Kinase (“Syk”) Assays
Measurement of TREM2 agonist potency was done using a HEK cell line expressing human TREM2 and DAP12 (HEK293T-hTREM2 cells). Binding of small molecules to, and activation of, TREM2 increases the phosphorylation of Syk. The resultant levels of Syk phosphorylation are measured using a commercial AlphaLisa reagent kit. To perform the assay, HEK-hTREM2 cells were plated at 14,000 cells per well in a 384 well plate, in 25 μL of complete growth media and incubated at 37° C., 5% CO2 for 20-24 hours.
Prior to the assay, test compounds were diluted in the 384 well plates in assay buffer and allowed to equilibrate for 30 minutes. Growth media was removed from cell plates by inversion on blotting paper, and 25 μL of test articles in assay buffer was added to cells. Cells were incubated for 45 minutes at room temperature. After 45 minutes, assay buffer was removed and 10 μL of lysis buffer was added. Plates were shaken for 20 minutes at 350 RPM at room temperature. After complete lysis, AlphaLisa reagents were added to the lysate, and fluourescence intensity was measured using a Perkin Elmer Envision plate reader. Intensities were used to generate a standard curve, and % activation was calculated. Curve fitting was performed using Prism v9 software, log(agonist) vs response—variable slope (four parameters), and EC50s were calculated from the curve fit.
The results presented in Table D have been generated with the in vitro assay described above. This assay may be used to test any of the compounds described herein to assess and characterize a compound's ability to act as an agonist of TREM2.

T1 sequence (Q9NZC2 19-230): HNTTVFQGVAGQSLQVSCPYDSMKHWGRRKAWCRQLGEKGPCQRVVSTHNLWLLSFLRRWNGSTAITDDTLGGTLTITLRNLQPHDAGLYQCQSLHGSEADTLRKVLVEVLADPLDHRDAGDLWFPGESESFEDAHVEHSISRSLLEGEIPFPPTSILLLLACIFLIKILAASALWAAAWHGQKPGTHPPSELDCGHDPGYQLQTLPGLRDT
T1 sequence (O43914 22-113 partner): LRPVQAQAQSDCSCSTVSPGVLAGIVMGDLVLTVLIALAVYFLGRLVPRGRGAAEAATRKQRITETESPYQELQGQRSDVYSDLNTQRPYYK

| EC50 [µM] | Structure (SMILES) |
| --- | --- |
| 0.5 to 3 | Cc1cc2c(-c3ccc(Cl)cc3)nn(-c3ccnc(OC4CN(C(=O)OC(C)(C)C)C4)c3)c(=O)c2cc1C [compound 20, tert-butyl 3-((4-(4-(4-chlorophenyl)-6,7-dimethyl-1-oxophthalazin-2(1H)-yl)pyridin-2-yl)oxy)azetidine-1-carboxylate] |
| 3 to 100 | CN1CCC(n2nc(-c3ccc(Cl)cc3)c3cc(Cl)c(Cl)cc3c2=O)CC1=O (stereo not drawn) [compound 21, 6,7-dichloro-4-(4-chlorophenyl)-2-(1-methyl-2-oxopiperidin-4-yl)phthalazin-1(2H)-one] |
| 0.5 to 3 | Cc1cc2c(-c3ccc(Cl)cc3)nn(-c3ccnc(C4COC4)c3)c(=O)c2cc1C [compound 14, 4-(4-chlorophenyl)-6,7-dimethyl-2-(2-(oxetan-3-yl)pyridin-4-yl)phthalazin-1(2H)-one] |
| 3 to 100 | Cc1ccc(-c2nn(CCc3ccccc3)c(=O)c3nc(C)sc23)cc1 [compound 34, 2-methyl-5-phenethyl-7-(p-tolyl)thiazolo[4,5-d]pyridazin-4(5H)-one] |
| 0.5 to 3 | CC(C)n1ccc(-n2nc(-c3ccc(Cl)cc3)c3cc(Cl)c(Cl)cc3c2=O)cc1=O [compound 11, 6,7-dichloro-4-(4-chlorophenyl)-2-(1-isopropyl-2-oxo-1,2-dihydropyridin-4-yl)phthalazin-1(2H)-one] |
| 3 to 100 | O=c1c2nc(NCC3CC3)sc2c(-c2ccc(Cl)cc2)nn1CCc1ccccc1 [compound 36, 7-(4-chlorophenyl)-2-(cyclopropylmethylamino)-5-(2-phenylethyl)thiazolo[4,5-d]pyridazin-4-one] |
| 3 to 100 | Cc1cc2c(-c3ccc(Cl)cc3)nn(-c3ccc(C4CC4)nc3)c(=O)c2cc1C [compound 17, 4-(4-chlorophenyl)-2-(6-cyclopropylpyridin-3-yl)-6,7-dimethylphthalazin-1(2H)-one] |
| 0.5 to 3 | Cc1cc2c(-c3ccc(Cl)cc3)nn(-c3ccc(OC(F)(F)F)cc3)c(=O)c2cc1C [compound 10, 4-(4-chlorophenyl)-6,7-dimethyl-2-(4-(trifluoromethoxy)phenyl)phthalazin-1(2H)-one] |
| 3 to 100 | Cc1nc2c(=O)n(-c3ccc(C(=O)NC(C)C)cc3)nc(-c3ccc(Cl)cc3)c2s1 [compound 38, 4-(7-(4-chlorophenyl)-2-methyl-4-oxothiazolo[4,5-d]pyridazin-5(4H)-yl)-N-isopropylbenzamide] |
| 3 to 100 | CC(C)C(=O)Nc1nc2c(=O)n(CCc3ccccc3)nc(-c3ccc(Cl)cc3)c2s1 [compound 35, N-[7-(4-chlorophenyl)-4-oxo-5-(2-phenylethyl)thiazolo[4,5-d]pyridazin-2-yl]-2-methyl-propanamide] |
| 0.5 to 3 | Cc1cc2c(-c3ccc(Cl)cc3)nn(-c3ccnc(C4CCN(C(=O)OC(C)(C)C)CC4)c3)c(=O)c2cc1C [compound 22, tert-butyl 4-(4-(4-(4-chlorophenyl)-6,7-dimethyl-1-oxophthalazin-2(1H)-yl)pyridin-2-yl)piperidine-1-carboxylate] |
| 3 to 100 | Cc1cc2c(-c3ccc(Cl)cc3)nn(-c3ccc4c(c3)OCO4)c(=O)c2cc1C [compound 19, 2-(benzo[d][1,3]dioxol-5-yl)-4-(4-chlorophenyl)-6,7-dimethylphthalazin-1(2H)-one] |
| 3 to 100 | Cc1nc2c(=O)n(CCc3ccccc3)nc(-c3ccc(Cl)cc3)c2s1 [compound 28, 7-(4-chlorophenyl)-2-methyl-5-phenethylthiazolo[4,5-d]pyridazin-4(5H)-one] |
| 3 to 100 | Cc1nc2c(=O)n(C(C)c3ccc(Cl)cc3)nc(-c3ccc(Cl)cc3)c2s1 (stereo not drawn) [compound 27, 7-(4-chlorophenyl)-5-(1-(4-chlorophenyl)ethyl)-2-methylthiazolo[4,5-d]pyridazin-4(5H)-one] |
| 3 to 100 | Cc1nc2c(=O)n(CC(C)c3ccc(Cl)cc3)nc(-c3ccc(Cl)cc3)c2s1 (stereo not drawn) [compound 31, 7-(4-chlorophenyl)-5-(2-(4-chlorophenyl)propyl)-2-methylthiazolo[4,5-d]pyridazin-4(5H)-one] |
| 0.5 to 3 | Cc1cc2c(-c3ccc(Cl)cc3)nn(-c3ccnc(N4CCN(C(=O)OC(C)(C)C)CC4)c3)c(=O)c2cc1C [compound 18, tert-butyl 4-(4-(4-(4-chlorophenyl)-6,7-dimethyl-1-oxophthalazin-2(1H)-yl)pyridin-2-yl)piperazine-1-carboxylate] |
| 3 to 100 | COc1ccc(-c2nn(CCc3ccccc3)c(=O)c3nc(C)sc23)cc1 [compound 40, 7-(4-methoxyphenyl)-2-methyl-5-phenethylthiazolo[4,5-d]pyridazin-4(5H)-one] |
| 0.5 to 3 | Cc1cc2c(-c3ccc(Cl)cc3)nn(-c3ccnc(C4CNC4)c3)c(=O)c2cc1C [compound 16, 2-(2-(azetidin-3-yl)pyridin-4-yl)-4-(4-chlorophenyl)-6,7-dimethylphthalazin-1(2H)-one] |
| 3 to 100 | Cc1nc2c(=O)n(CCc3ccccc3)nc(-c3ccc(Cl)c(Cl)c3)c2s1 [compound 32, 7-(3,4-dichlorophenyl)-2-methyl-5-phenethylthiazolo[4,5-d]pyridazin-4(5H)-one] |
| 0.5 to 3 | Cc1cc2c(-c3ccc(Cl)cc3)nn(-c3ccnc(C4CCC4)c3)c(=O)c2cc1C [compound 15, 4-(4-chlorophenyl)-2-(2-cyclobutylpyridin-4-yl)-6,7-dimethylphthalazin-1(2H)-one] |
| 0.5 to 3 | Cc1ccc2c(-c3ccc(Cl)cc3)nn(-c3ccc(OC(F)(F)F)cc3)c(=O)c2n1 [compound 23, 5-(4-chlorophenyl)-2-methyl-7-(4-(trifluoromethoxy)phenyl)pyrido[2,3-d]pyridazin-8(7H)-one] |
| 0.5 to 3 | CC(C)Oc1cc(-n2nc(-c3ccc(Cl)cc3)c3cc(Cl)c(Cl)cc3c2=O)ccn1 [compound 12, 6,7-dichloro-4-(4-chlorophenyl)-2-(2-isopropoxypyridin-4-yl)phthalazin-1(2H)-one] |
| 3 to 100 | CC(=O)N1CCC(n2nc(-c3ccc(Cl)cc3)c3cc(Cl)c(Cl)cc3c2=O)CC1 [compound 13, 2-(1-acetylpiperidin-4-yl)-6,7-dichloro-4-(4-chlorophenyl)phthalazin-1(2H)-one] |

Same assay, conditions: HEK293 cells expressing human TREM2 and DAP12; pSyk AlphaLisa; Table D-2

| EC50 [µM] | Structure (SMILES) |
| --- | --- |
| 0.5 to 3 | Cc1cc2c(-c3ccc(Cl)cc3)nn(-c3ccnc(NC4CCOC4)c3)c(=O)c2nc1C (racemic) [I-113, 5-(4-chlorophenyl)-2,3-dimethyl-7-(2-((tetrahydrofuran-3-yl)amino)pyridin-4-yl)pyrido[2,3-d]pyridazin-8 (7H)-one] |
| 0.5 to 3 | COc1ccc(-c2nn(-c3ccnc(C4COC4)c3)c(=O)c3cc(C)c(C)cc23)cc1 [I-108, 4-(4-methoxyphenyl)-6,7-dimethyl-2-[2-(oxetan-3-yl)-4-pyridyl]phthalazin-1-one] |
| 0.5 to 3 | Cc1nc2c(-c3ccc(C(F)(F)F)cc3F)cn([C@H]3CCO[C@@H](c4cnn(C5CC5)c4)C3)c(=O)c2nc1C [I-123, 6-[(2R,4S)-2-(1-cyclopropyl-1H-pyrazol-4-yl)tetrahydro-2H-pyran-4-yl]-8-[2-fluoro-4-(trifluoromethyl)phenyl]-2,3-dimethylpyrido[3,4-b]pyrazin-5 (6H)-one] |
| 0.5 to 3 | Cc1cc2c(-c3ccc(Cl)cc3)nn(-c3ccnc(C4CC(OCc5ccccc5)C4)c3)c(=O)c2cc1C (stereo not drawn) [I-109, 2-(2-(3-(benzyloxy)cyclobutyl)pyridin-4-yl)-4-(4-chlorophenyl)-6,7-dimethylphthalazin-1 (2H)-one] |
| 0.5 to 3 | Cc1cc2c(-c3ccc(Cl)c(Cl)c3)nn(-c3ccnc(C4COC4)c3)c(=O)c2cc1C [I-107, 4-(3,4-dichlorophenyl)-6,7-dimethyl-2-[2-(oxetan-3-yl)-4-pyridyl]phthalazin-1-one] |
| 0.5 to 3 | Cc1cc2c(-c3ccc(Cl)cc3)nn(-c3ccnc(NC4COC4)c3)c(=O)c2nc1C [I-116, 5-(4-chlorophenyl)-2,3-dimethyl-7-(2-(oxetan-3-ylamino)pyridin-4-yl)pyrido[2,3-d]pyridazin-8 (7H)-one] |
| 0.5 to 3 | Cc1cc2c(-c3ccc(Cl)cc3)nn(-c3ccnc(OC4CNC4)c3)c(=O)c2nc1C [I-94, 7-[2-(azetidin-3-yloxy)-4-pyridyl]-5-(4-chlorophenyl)-2,3-dimethyl-pyrido[2,3-d]pyridazin-8-one; 2,2,2-trifluoroacetic acid] |
| 3 to 100 | Cc1cc2c(-c3ccc(Cl)cc3)nn(-c3ccnc(C4COC4)c3)c(=O)c2nc1C [I-112, 5-(4-chlorophenyl)-2,3-dimethyl-7-[2-(oxetan-3-yl)-4-pyridyl]pyrido [2,3-d]pyridazin-8-one] |
| 3 to 100 | Cc1cc2c(-c3ccc(F)cc3)nn(-c3ccc(OC(F)(F)F)cc3)c(=O)c2nc1C [I-121, 5-(4-fluorophenyl)-2,3-dimethyl-7-(4-(trifluoromethoxy)phenyl)pyrido[2,3-d]pyridazin-8 (7H)-one] |
| 0.5 to 3 | Cc1cc2c(-c3ccc(Cl)cc3)nn(-c3ccnc(NC4CC(F)(F)C4)c3)c(=O)c2nc1C [I-117, 5-(4-chlorophenyl)-7-(2-((3,3-difluorocyclobutyl)amino)pyridin-4-yl)-2,3-dimethylpyrido[2,3-d]pyridazin-8 (7H)-one] |
